The values below come from publication PMC11776921 (Journal of chemical theory and computation, 2024).

This assay deals with GSK-3β (Homo sapiens, UniProt P49841). As to the kind of experiment: GSK-3 kinase Z'LYTE assay. As to conditions: COB-136 versus COB-187; nitrogen in the pyridine ring replaced by carbon. It counts as biochemical.
Chain of GSK-3β (P49841 whole entry): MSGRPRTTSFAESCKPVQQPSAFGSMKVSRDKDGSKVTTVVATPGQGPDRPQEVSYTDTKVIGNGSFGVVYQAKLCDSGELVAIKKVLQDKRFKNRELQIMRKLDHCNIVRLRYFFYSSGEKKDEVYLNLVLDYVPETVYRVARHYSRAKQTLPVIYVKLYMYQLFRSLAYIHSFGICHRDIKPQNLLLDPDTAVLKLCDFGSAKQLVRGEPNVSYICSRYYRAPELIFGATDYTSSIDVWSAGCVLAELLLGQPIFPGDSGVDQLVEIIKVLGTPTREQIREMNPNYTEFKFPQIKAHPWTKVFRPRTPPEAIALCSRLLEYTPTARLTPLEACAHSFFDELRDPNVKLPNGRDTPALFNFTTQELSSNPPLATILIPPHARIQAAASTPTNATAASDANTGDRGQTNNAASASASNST

`OC1(c2ccccc2)CSC(=S)N1Cc1ccccc1` (stereo not shown) [COB-136]: the “inhibitory activity (in words)” value was “dramatically impairs the inhibitory activity”.
